{"source": "patent US9650616B2", "about": "“Methods for increasing grain yield” (University of Florida Research Foundation, Inc., priority 2014, dated 2017)", "key": {"[1]": {"target": "T1, maize endosperm AGPase, large subunit variant RGR (Q96R, D161G, A443R; numbering of SEQ ID NO: 20) (Zea mays, UniProt P55241+Q84PF5, A443R/D161G/Q96R)", "T1 sequence (P55241 46-516 A443R/D161G/Q96R)": "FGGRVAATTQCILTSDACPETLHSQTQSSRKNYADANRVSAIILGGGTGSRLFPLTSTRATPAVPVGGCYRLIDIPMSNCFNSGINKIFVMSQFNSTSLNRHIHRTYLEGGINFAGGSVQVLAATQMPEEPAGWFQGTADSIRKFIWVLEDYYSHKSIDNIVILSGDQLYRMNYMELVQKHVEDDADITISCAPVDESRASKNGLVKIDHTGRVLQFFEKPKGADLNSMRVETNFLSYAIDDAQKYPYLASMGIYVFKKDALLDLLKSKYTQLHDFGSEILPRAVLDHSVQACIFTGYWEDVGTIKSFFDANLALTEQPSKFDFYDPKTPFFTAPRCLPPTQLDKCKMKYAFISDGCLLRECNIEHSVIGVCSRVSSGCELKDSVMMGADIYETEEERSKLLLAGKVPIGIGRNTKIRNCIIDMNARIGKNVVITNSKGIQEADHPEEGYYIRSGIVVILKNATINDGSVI", "T1 sequence (Q84PF5 1-474)": "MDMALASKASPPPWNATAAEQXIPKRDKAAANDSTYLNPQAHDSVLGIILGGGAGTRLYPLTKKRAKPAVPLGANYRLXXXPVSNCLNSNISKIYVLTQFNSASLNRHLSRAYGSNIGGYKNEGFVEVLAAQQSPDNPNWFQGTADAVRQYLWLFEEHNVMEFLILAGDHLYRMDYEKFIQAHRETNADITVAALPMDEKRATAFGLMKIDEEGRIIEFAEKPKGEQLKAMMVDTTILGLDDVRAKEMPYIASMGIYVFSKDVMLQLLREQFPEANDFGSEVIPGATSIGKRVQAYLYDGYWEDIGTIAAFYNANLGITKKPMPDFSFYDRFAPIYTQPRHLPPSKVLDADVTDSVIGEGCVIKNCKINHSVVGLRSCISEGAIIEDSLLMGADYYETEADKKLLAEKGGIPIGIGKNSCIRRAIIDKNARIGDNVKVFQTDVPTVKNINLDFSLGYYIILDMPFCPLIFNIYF", "experiment": "Apparent kinetic constants with 3-PGA, 37° C., RGR", "format": "biochemical", "conditions": "read-out: ATP Km", "description": "(§1) The small and large subunit plasmids of maize endosperm AGPase (pMONcBt2 and pMONcSh2, respectively) (Giroux et al., 1996) were expressed in E. coli AC70R1-504 cells (Iglesias et al., 1993) as previously described (Boehlein et al., 2008).\n(§2) An endpoint assay was used to determine the rate of the AGPase reaction by coupling the formation of PPi to a decrease in NADH concentration (Boehlein et al., 2008). […] The Michaelis constants (Km) were obtained by varying one substrate in the presence of saturating concentrations of the second substrate. The activation constants were obtained by varying the activator at fixed levels of both substrates. All reactions were performed at 37° C. and mixes were prewarmed before starting the reaction with enzyme. […] The absorbance at 340 nm was monitored after 30 min and the amount of PPi produced was determined from a standard curve using PPi in complete reaction mixtures lacking AGPase. Blank samples contained complete reaction mixtures without enzyme and the change in absorbance between the blank and the reaction was used to calculate the amount of PPi produced. […]\n(§3) The apparent Michaelis constant and maximum velocity of each reaction was calculated from a V vs. S plots using nonlinear regression analysis and the following equation, v=VmaxS/(Km+S), where v is the measured velocity, Vmax is the maximum velocity, S is the substrate concentration. […]"}, "[2]": {"test_system": "maize endosperm AGPase, evolutionary mutant SH2-E (SH2E)", "conditions": "presence of 3-PGA, ATP varied, Pi inhibition, NC, read-out: Km (ATP); cited from earlier work"}, "[3]": {"target": "T2, maize endosperm AGPase, large subunit variant GGRA (Q96G, D161G, A443R, Q289A; numbering of SEQ ID NO: 20) (Zea mays, UniProt P55241+Q84PF5, A443R/D161G/Q289A/Q96G)", "T2 sequence (P55241 46-516 A443R/D161G/Q289A/Q96G)": "T1 sequence (P55241 46-516 A443R/D161G/Q96R) with R51G, Q244A", "T2 sequence (Q84PF5 1-474)": "T1 sequence (Q84PF5 1-474)", "experiment": "Apparent kinetic constants with 3-PGA, 37° C., GGRA", "format": "biochemical", "conditions": "read-out: ATP Km", "description": "as §1, §2, §3"}}, "note": "Changes are numbered by the printed parent chain."}
{"smiles": "Nc1ncnc2c1ncn2[C@@H]1O[C@H](COP(=O)(O)OP(=O)(O)OP(=O)(O)O)[C@@H](O)[C@H]1O", "note": "[ATP]", "values": [{"measurement": "Km", "setting": "[1]", "result": 62, "unit": "µM"}, {"measurement": "Km", "setting": "[2]", "result": 210, "unit": "µM"}, {"measurement": "Km", "setting": "[3]", "result": 57, "unit": "µM"}]}
